Source: US11028090B2 (Dong Wha Pharm. Co., Ltd., priority 2017, dated 2021)
Read-outs that look alike come from different tables or passages of the source.

Key:
[1] = molecular target: BRD4 (BD1+BD2) bromodomain (Homo sapiens (Human), UniProt O60885); test: BRD4 binding inhibition (AlphaScreen, GST-BRD4 vs tetraacetylated histone H4 peptide)
Summary of the method: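 GST-BRD4 (BD1+BD2) and biotinylated tetraacetyl-histone H4 peptide, each at 100 nM in HEPES pH 7.4 buffer with BSA and DTT, were combined with compound. Glutathione acceptor and streptavidin donor beads were added, then incubated 30 min at room temperature in the dark. Read-out was AlphaScreen signal.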

[2] = test system: thymus cancer cells (Ty-82 cells); test: Cytotoxicity to thymus cancer cells (Ty-82 cells), WST-1; conditions: Homo sapiens, TY82, 72 h
Protocol: The following experiment was performed to evaluate the cytotoxicity of [1,2,4]triazolo[4,3-a]quinoxaline derivative according to the present invention to thymus cancer cells (Ty-82 cells).
First, thymus cancer cells (Ty-82 cells) were distributed in a 96 well plate at the density of 2.5×10^4 cells/well. 24 hours later, the plated cells were treated with the compounds of the present invention dissolved in DMSO at the different concentrations ranging from 0.01 μM to 10 μM. 72 hours later, the activities of the compounds were determined using WST-1 reagent.

[3] = test system: acute myelogenous leukemia cells (MV-4-11 cells); test: Cytotoxicity to acute myelogenous leukemia cells (MV-4-11 cells), CCK-8; conditions: Homo sapiens, MV4-11, 72 h
[4] = GST-BRD4 (BD1+BD2) / biotinylated acetyl-histone H4 (Lys5,8,12,16) peptide, read-out: IC50, BRD4 binding inhibition
[5] = GST-BRD4 (BD1+BD2) vs biotinylated acetyl-histone H4 peptide, AlphaScreen, read-out: BRD4 IC50
[6] = read-out: IC50, cytotoxicity against thymus cancer cells
[7] = read-out: Ty-82 Cytotoxicity IC50
[8] = read-out: IC50, cytotoxicity against acute myelogenous leukemia cells
[9] = read-out: MV-4-11 Cytotoxicity IC50

Structure (SMILES) | IC50 [1, 4] | IC50 [1, 5] | IC50 [2, 6] | IC50 [2, 7] | IC50 [3, 8] | IC50 [3, 9] | IC50 ([1]; IC50, BRD4 binding inhibition, GST-BRD4 (BD1+BD2) / biotinylated acetyl-histone H4 (Lys5,8,12,16) peptide)
COc1cc2nc(NCCCCNC(=O)Oc3ccccc3)c3nnc(C)n3c2cc1OC [Example 67, [4-(7,8-dimethoxy-1-methyl-[1,2,4]triazolo[4,3-a]quinoxaline-4-ylamino)-butyl]-carbamic acid phenylester] |  | 19 nM | ≤ 500 nM | 170 nM | ≤ 200 nM | 140 nM | ≤ 50 nM
COc1cc2nc(NCCCCNC(=O)Cc3cccs3)c3nnc(C)n3c2cc1OC [Example 84, N-[4-(7,8-dimethoxy-1-methyl-[1,2,4]triazolo[4,3-a]quinoxaline-4-ylamino)-butyl]-2-thiophene-2-yl-acetamide] | ≤ 50 nM | 14 nM | ≤ 500 nM | 27 nM | ≤ 200 nM | 10 nM | 
COc1cc2nc(NCCCCNC(=O)NC(C)(C)C)c3nnc(C)n3c2cc1OC [Example 88, 1-tert-butyl-3-[4-(7,8-dimethoxy-1-methyl-[1,2,4]triazolo[4,3-a]quinoxaline-4-ylamino)-butyl]-urea] | ≤ 50 nM | 18 nM |  | 970 nM |  | 510 nM | 
COc1cc2nc(NCCCCNC(=O)NC(C)C)c3nnc(C)n3c2cc1OC [Example 90] |  | 63 nM | ≤ 500 nM | 400 nM |  | 300 nM | 
COc1cc2nc(NCCCCNC(=O)NC3CCCCC3)c3nnc(C)n3c2cc1OC [Example 93, 1-cyclohexyl-3-[4-(7,8-dimethoxy-1-methyl-[1,2,4]triazolo[4,3-a]quinoxaline-4-ylamino)-butyl]-urea] | ≤ 50 nM | 39 nM |  | 560 nM |  | 340 nM | 
COc1cc2nc(NCCCCNC(=O)c3ccccc3Cl)c3nnc(C)n3c2cc1OC [Example 99, 2-chloro-N-[4-(7,8-dimethoxy-1-methyl-[1,2,4]triazolo[4,3-a]quinoxaline-4-ylamino)-butyl]-benzamide] | ≤ 50 nM | 21 nM |  | 550 nM |  | 230 nM | 
COc1cc2nc(NCCCCNC(=O)c3cccc(Cl)c3Cl)c3nnc(C)n3c2cc1OC [Example 102, 2,3-dichloro-N-[4-(7,8-dimethoxy-1-methyl-[1,2,4]triazolo[4,3-a]quinoxaline-4-ylamino)-butyl]-benzamide] | ≤ 50 nM |  |  | 840 nM |  | 360 nM | 
COc1cc2nc(NCCCCNC(=O)c3ccc(C)nc3Cl)c3nnc(C)n3c2cc1OC [Example 108, 2-chloro-N-[4-(7,8-dimethoxy-1-methyl-[1,2,4]triazolo[4,3-a]quinoxaline-4-ylamino)-butyl]-6-methyl-nicotinamide] | ≤ 50 nM | 17 nM | ≤ 500 nM | 370 nM |  | 510 nM | 
COc1c(C)ccc2c1nc(NCCCCNC(=O)CC(C)C)c1nnc(C)n12 [Example 135, N-[4-(6-methoxy-1,7-dimethyl-[1,2,4]triazolo[4,3-a]quinoxaline-4-ylamino)-butyl]-3-methyl-butyramide] |  | 61 nM |  | 730 nM |  | 360 nM | 
COCCOc1cc2nc(NCCCCNC(=O)OC(C)C)c3nnc(C)n3c2cc1OCCOC [Example 165, {4-[7,8-bis-(2-methoxy-ethoxy)-1-methyl-[1,2,4]triazolo[4,3-a]quinoxaline-4-ylamino]-butyl}-carbamic acid isopropylester] | ≤ 50 nM | 26 nM |  | 580 nM |  | 220 nM | 
COCCOc1cc2nc(NCCCCNC(=O)CC(C)C)c3nnc(C)n3c2cc1OCCOC [Example 166, N-{4-[7,8-bis-(2-methoxy-ethoxy)-1-methyl-[1,2,4]triazolo[4,3-a]quinoxaline-4-ylamino]-butyl}-3-methyl-butyramide] | ≤ 50 nM | 20 nM |  | 580 nM | ≤ 200 nM | 70 nM | 
COCCOc1cc2nc(NCCCCNC(=O)CC(C)(C)C)c3nnc(C)n3c2cc1OCCOC [Example 167, N-{4-[7,8-bis-(2-methoxy-ethoxy)-1-methyl-[1,2,4]triazolo[4,3-a]quinoxaline-4-ylamino]-butyl}-3,3-dimethyl-butyramide] | ≤ 50 nM | 40 nM |  | 880 nM |  | 510 nM | 
COCCOc1cc2nc(NCCCCNC(=O)OCC(C)C)c3nnc(C)n3c2cc1OCCOC [Example 168, {4-[7,8-bis-(2-methoxy-ethoxy)-1-methyl-[1,2,4]triazolo[4,3-a]quinoxaline-4-ylamino]-butyl}-carbamic acid isobutylester] | ≤ 50 nM | 16 nM |  | 600 nM | ≤ 200 nM | 90 nM | 

Now from value to molecule, other results behind:

IC50 [1, 4] | IC50 [1, 5] | Structure (SMILES) | IC50 [2, 6] | IC50 [2, 7] | IC50 [3, 8] | IC50 [3, 9] | IC50 ([1]; IC50, BRD4 binding inhibition, GST-BRD4 (BD1+BD2) / biotinylated acetyl-histone H4 (Lys5,8,12,16) peptide)
≤ 10 nM | 7 nM | COc1cc2nc(NCCCCNC(=O)OCC(C)C)c3nnc(C)n3c2cc1OC [Example 62, [4-(7,8-dimethoxy-1-methyl-[1,2,4]triazolo[4,3-a]quinoxaline-4-ylamino)-butyl]-carbamic acid isobutylester] | ≤ 500 nM | 290 nM | ≤ 200 nM | 120 nM | 
≤ 50 nM | 22 nM | C=CCOC(=O)NCCCCNc1nc2cc(OC)c(OC)cc2n2c(C)nnc12 [Example 65, [4-(7,8-dimethoxy-1-methyl-[1,2,4]triazolo[4,3-a]quinoxaline-4-ylamino)-butyl]-carbamic acid allylester] | ≤ 500 nM | 370 nM | ≤ 200 nM | 130 nM | 
≤ 50 nM | 13 nM | COc1cc2nc(NCCCCNC(=O)OC3CCCC3)c3nnc(C)n3c2cc1OC [Example 66, [4-(7,8-dimethoxy-1-methyl-[1,2,4]triazolo[4,3-a]quinoxaline-4-ylamino)-butyl]-carbamic acid cyclopentyl-ester] | ≤ 500 nM | 58 nM | ≤ 200 nM | 110 nM | 
≤ 50 nM | 28 nM | COc1cc2nc(NCCCCNC(=O)CC(C)C)c3nnc(C)n3c2cc1OC [Example 74, N-[4-(7,8-dimethoxy-1-methyl-[1,2,4]triazolo[4,3-a]quinoxaline-4-ylamino)-butyl]-3-methyl-butyramide] | ≤ 500 nM | 170 nM | ≤ 200 nM | 110 nM | 
≤ 50 nM | 28 nM | COc1cc2nc(NCCCCNC(=O)CC(C)(C)C)c3nnc(C)n3c2cc1OC [Example 75, N-[4-(7,8-dimethoxy-1-methyl-[1,2,4]triazolo[4,3-a]quinoxaline-4-ylamino)-butyl]-3,3-dimethyl-butyramide] |  | 790 nM |  | 340 nM | 
≤ 50 nM | 22 nM | CCC(C)C(=O)NCCCCNc1nc2cc(OC)c(OC)cc2n2c(C)nnc12 (stereo not shown) [Example 77, N-[4-(7,8-dimethoxy-1-methyl-[1,2,4]triazolo[4,3-a]quinoxaline-4-ylamino)-butyl]-2-methyl-butyramide] |  | 920 nM | ≤ 200 nM | 150 nM | 
≤ 10 nM |  | COc1cc(C)c2nc(NCCCCNC(=O)OC(C)C)c3nnc(C)n3c2c1 [Example 161, [4-(8-methoxy-1,6-dimethyl-[1,2,4]triazolo[4,3-a]quinoxaline-4-ylamino)-butyl]-carbamic acid isopropylester] |  | 810 nM | ≤ 200 nM | 80 nM | 
